Test results taken from patent publication US8916183B2, “Pesticidal compositions and processes related thereto” (priority 2012, dated 2014).
Read-outs that look alike come from different tables or passages of the source.

Assays:
[1] = tested on: Beet Armyworm (BAW) (Spodoptera exigua); assay: Bioassay on beet armyworm (BAW), 128-well diet tray assay; type: in vivo; conditions: Spodoptera exigua, read-out: % Mortality BAW 50 μg/cm^2
Protocol: (§1) Certain molecules disclosed in this document were tested against BAW and CEW using procedures described in the following examples. In the reporting of the results, the “BAW & CEW Rating Table” was used (See Table Section).
Bioassays on BAW (Spodoptera exigua)
Bioassays on BAW were conducted using a 128-well diet tray assay. […] Trays were covered with a clear self-adhesive cover and held at 25° C., 14:10 light-dark for five to seven days. Percent mortality was recorded for the larvae in each well; activity in the eight wells was then averaged. The results are indicated in the table entitled “Table 5: Biological Results” (See Table Section).

[2] = tested on: Corn Earworm (CEW) (Helicoverpa zea); assay: Bioassay on corn earworm (CEW), 128-well diet tray assay; type: in vivo; conditions: Helicoverpa zea, read-out: % Mortality CEW 50 μg/cm^2
Protocol: as §1
Bioassays on CEW (Helicoverpa zea)
Bioassays on CEW were conducted using a 128-well diet tray assay. […] Trays were covered with a clear self-adhesive cover and held at 25° C., 14:10 light-dark for five to seven days. Percent mortality was recorded for the larvae in each well; activity in the eight wells was then averaged. The results are indicated in the table entitled “Table 5: Biological Results” (See Table Section).

| Structure (SMILES) | mortality at 50 µg/cm2 ([1]; beet armyworm, 50 μg/cm^2) [%] | mortality at 50 µg/cm2 ([2]; corn earworm, 50 μg/cm^2) [%] | mortality at 50 µg/cm2 [1] [%] | mortality at 50 µg/cm2 [2] [%] |
| --- | --- | --- | --- | --- |
| CC(C)c1ccccc1N1/C(=N/N=C/c2ccc(-c3ncn(-c4ccc(OC(F)(F)F)cc4)n3)cc2)SCC1(O)C(F)(F)F (racemic) [Compound 246C] | 50 to 100 | 50 to 100 | – | – |
| COc1cc(C)c(N2C(=O)CSC2=NN=Cc2ccc(-c3ncn(-c4ccc(OC(F)(F)F)cc4)n3)cc2)c(C)c1 (stereo in doubt) [Compound 69C, (Z)-3-(4-methoxy-2,6-dimethylphenyl)-2-((E)-(4-(1-(4-(trifluoromethoxy)phenyl)-1H-1,2,4-triazol-3-yl)benzylidene)hydrazono)thiazolidin-4-one] | 50 to 100 | 50 to 100 | – | – |
| COc1cc(C)c(/N=C(\N/N=C/c2ccc(-c3ncn(-c4ccc(C(F)(F)F)cc4)n3)cc2)SCOC(=O)CNC(=O)OCc2ccccc2)c(C)c1 [Compound 45C] | – | – | 50 to 100 | 50 to 100 |
| COc1cc(C)c(/N=C(/N/N=C/c2ccc(-c3ncn(-c4ccc(OC(F)(F)F)cc4)n3)cc2)SCC(=O)O)c(C)c1 [Compound 48C] | 50 to 100 | 50 to 100 | – | – |
| COc1ccc(/N=C(/N/N=C/c2ccc(-c3ncn(-c4ccc(OC(F)(F)C(F)(F)F)cc4)n3)cc2)SCC(=O)O)c(C)c1 [Compound 50C] | 50 to 100 | 50 to 100 | – | – |
| Cc1cccc(C)c1/N=C(/N/N=C/c1ccc(-c2ncn(-c3ccc(OC(F)(F)F)cc3)n2)cc1)SCC(=O)NC[C@@H]1CCCN(C(=O)OC(C)(C)C)C1 [Compound 56C, (S)-tert-butyl 3-((2-((Z)-(2,6-dimethylphenylimino)-((E)-2-(4-(1-(4-(trifluoromethoxy)phenyl)-1H-1,2,4-triazol-3-yl)benzylidene)hydrazinyl)-methylthio)acetamido)methyl)piperidine-1-carboxylate] | 50 to 100 | 50 to 100 | – | – |
| Cc1cccc(C)c1/N=C(/N/N=C/c1ccc(-c2ncn(-c3ccc(OC(F)(F)F)cc3)n2)cc1)SCC(=O)NCCCN(C)C(=O)OC(C)(C)C [Compound 61C] | – | – | 50 to 100 | 50 to 100 |
| COc1cccc(N2C(=O)CS/C2=N\N=C\c2ccc(-c3ncn(-c4ccc(OC(F)(F)F)cc4)n3)cc2)c1 [Compound 91C] | 0 | 0 | – | – |
| CN(C)c1cccc(N2C(=O)CS/C2=N\N=C\c2ccc(-c3ncn(-c4ccc(OC(F)(F)F)cc4)n3)cc2)c1 [Compound 97C] | 50 to 100 | 50 to 100 | – | – |
| CCOc1cccc(OCC)c1N1C(=O)CS/C1=N\N=C\c1ccc(-c2ncn(-c3ccc(OC(F)(F)F)cc3)n2)cc1 [Compound 98C] | 50 to 100 | – | – | – |
| O=C1CS/C(=N\N=C\c2ccc(-c3ncn(-c4ccc(OC(F)(F)F)cc4)n3)cc2)N1c1c(Br)cccc1Br [Compound 99C] | 50 to 100 | 50 to 100 | – | – |
| Cc1cccc(C)c1N1C(=O)CS/C1=N\N=C\c1ccc(-c2ncn(-c3ccc(OC(F)(F)C(F)(F)F)cc3)n2)cc1 [Compound 100C] | 50 to 100 | 50 to 100 | – | – |
| COc1cc(C)c(N2C(=O)CS/C2=N\N=C\c2ccc(-c3ncn(-c4ccc(OC(F)(F)F)cc4)n3)cc2)c(C)n1 [Compound 101C] | 50 to 100 | 50 to 100 | – | – |
| O=C1CS/C(=N\N=C\c2ccc(-c3cn(-c4ccc(OC(F)(F)F)cc4)cn3)cc2)N1c1c(Cl)cccc1Cl [Compound 102C] | 50 to 100 | 50 to 100 | – | – |
| Cc1cccc(C)c1N1C(=O)CS/C1=N\N=C\c1ccc(-c2ccn(-c3ccc(OC(F)(F)F)cc3)n2)cc1 [Compound 103C] | 50 to 100 | 50 to 100 | – | – |
| Cc1cccc(C)c1N1C(=O)CS/C1=N\N=C\c1ccc(-c2cnn(-c3ccc(OC(F)(F)F)cc3)c2)cc1 [Compound 104C] | 50 to 100 | 50 to 100 | – | – |
| Cc1cc(Cl)cc(C)c1N1C(=O)CS/C1=N\N=C\c1ccc(-c2ncn(-c3ccc(OC(F)(F)F)cc3)n2)cc1 [Compound 105C] | 50 to 100 | 50 to 100 | – | – |
| O=C1CS/C(=N\N=C\c2ccc(-c3ncn(-c4ccc(OC(F)(F)F)cc4)n3)cc2)N1c1ccccc1Cl [Compound 106C] | 50 to 100 | 50 to 100 | – | – |
| CCOC(=O)c1ccccc1N1C(=O)CS/C1=N\N=C\c1ccc(-c2ncn(-c3ccc(OC(F)(F)F)cc3)n2)cc1 [Compound 107C] | 0 | 0 | – | – |
| COC(=O)C1CC(c2ccc(/C=N/N=C3\SCC(=O)N3c3c(Cl)cccc3Cl)cc2)=NN1c1ccc(OC(F)(F)F)cc1 (centres unmarked) [Compound 109C] | 50 to 100 | 50 to 100 | – | – |
| COC(=O)C1CC(c2ccc(/C=N/N=C3\SCC(=O)N3c3c(C)cccc3C)cc2)=NN1c1ccc(OC(F)(F)F)cc1 (centres unmarked) [Compound 110C] | 50 to 100 | 50 to 100 | – | – |
| Cc1ccccc1N1C(=O)CS/C1=N\N=C\c1ccc(-c2ncn(-c3ccc(OC(F)(F)F)cc3)n2)cc1 [Compound 113C] | 50 to 100 | 50 to 100 | – | – |

| Structure (SMILES) | mortality at 50 µg/cm2 ([1]; beet armyworm, 50 μg/cm^2) [%] | mortality at 50 µg/cm2 ([2]; corn earworm, 50 μg/cm^2) [%] | mortality at 50 µg/cm2 [1] [%] | mortality at 50 µg/cm2 [2] [%] |
| --- | --- | --- | --- | --- |
| COc1ccc(N2C(=O)CS/C2=N\N=C\c2ccc(-c3ncn(-c4ccc(OC(F)(F)F)cc4)n3)cc2)c(C)c1 [Compound 114C] | 50 to 100 | 50 to 100 | – | – |
| COc1ccc(N2C(=O)CS/C2=N\N=C\c2ccc(-c3ncn(-c4ccc(OC(F)(F)F)cc4)n3)cc2)cc1 [Compound 115C] | 0 to 50 | 0 | – | – |
| CCOc1ccccc1N1C(=O)CS/C1=N\N=C\c1ccc(-c2ncn(-c3ccc(OC(F)(F)F)cc3)n2)cc1 [Compound 116C] | 50 to 100 | 50 to 100 | – | – |
| CC(C)c1ccccc1N1C(=O)CS/C1=N\N=C\c1ccc(-c2ncn(-c3ccc(C(F)(F)F)cc3)n2)cc1 [Compound 120C] | 50 to 100 | 50 to 100 | – | – |
| C/C(=N\N=C1/SCC(=O)N1c1ccccc1CC(C)C)c1ccc(-c2ncn(-c3ccc(OC(F)(F)F)cc3)n2)cc1 [Compound 122C] | 50 to 100 | 50 to 100 | – | – |
| CCc1cccnc1N1C(=O)CS/C1=N\N=C\c1ccc(-c2ncn(-c3ccc(OC(F)(F)F)cc3)n2)cc1 [Compound 123C] | 50 to 100 | 50 to 100 | – | – |
| O=C1CS/C(=N\N=C\c2ccc(-c3ncn(-c4ccc(OC(F)(F)F)cc4)n3)cc2)N1c1ccccc1OC(F)(F)F [Compound 124C] | 50 to 100 | 50 to 100 | – | – |
| CC(C)(C)c1ccccc1N1C(=O)CS/C1=N\N=C\c1ccc(-c2ncn(-c3ccc(OC(F)(F)F)cc3)n2)cc1 [Compound 125C] | 50 to 100 | 50 to 100 | – | – |
| O=C1CS/C(=N\N=C\c2ccc(-c3ncn(-c4ccc(OC(F)(F)F)cc4)n3)cc2)N1c1ccccc1OC(F)F [Compound 126C] | 50 to 100 | 50 to 100 | – | – |
| CC1S/C(=N\N=C\c2ccc(-c3ncn(-c4ccc(OC(F)(F)F)cc4)n3)cc2)N(c2ccccc2C2CC2)C1=O (centres unmarked) [Compound 127C] | 50 to 100 | 50 to 100 | – | – |
| CCCc1ccccc1N1C(=O)C(C)S/C1=N\N=C\c1ccc(-c2ncn(-c3ccc(OC(F)(F)F)cc3)n2)cc1 (centres unmarked) [Compound 128C] | 50 to 100 | 50 to 100 | – | – |
| CC1S/C(=N\N=C\c2ccc(-c3ncn(-c4ccc(OC(F)(F)F)cc4)n3)cc2)N(c2c(Cl)cccc2Cl)C1=O (centres unmarked) [Compound 129C] | 50 to 100 | 50 to 100 | – | – |
| CC1S/C(=N\N=C\c2ccc(-c3ncn(-c4ccc(OC(F)(F)F)cc4)n3)cc2)N(c2c(F)cccc2Cl)C1=O (centres unmarked) [Compound 130C] | 50 to 100 | 50 to 100 | – | – |
| CC(C)c1ccccc1N1CCS/C1=N\N=C\c1ccc(-c2ncn(-c3ccc(C(F)(F)F)cc3)n2)cc1 [Compound 134C] | 50 to 100 | 50 to 100 | – | – |
| Fc1cccc(Cl)c1N1CCS/C1=N\N=C\c1ccc(-c2ncn(-c3ccc(OC(F)(F)F)cc3)n2)cc1 [Compound 143C] | 50 to 100 | 50 to 100 | – | – |
| FC(F)(F)Oc1ccc(-n2cnc(-c3ccc(/C=N/N=C4\SCCN4c4ccccc4-c4ccccc4)cc3)n2)cc1 [Compound 144C] | 50 to 100 | 50 to 100 | – | – |
| Fc1cccc(F)c1N1CCS/C1=N\N=C\c1ccc(-c2ncn(-c3ccc(OC(F)(F)F)cc3)n2)cc1 [Compound 148C] | 50 to 100 | 50 to 100 | – | – |
| FC(F)Oc1ccccc1N1CCS/C1=N\N=C\c1ccc(-c2ncn(-c3ccc(OC(F)(F)F)cc3)n2)cc1 [Compound 152C] | 50 to 100 | 50 to 100 | – | – |
| FC(F)(F)Oc1ccc(-n2cnc(-c3ccc(/C=N/N=C4\SCCN4c4ccccc4OC(F)(F)F)cc3)n2)cc1 [Compound 153C] | 0 | 50 to 100 | – | – |
| CC1CS/C(=N\N=C\c2ccc(-c3ncn(-c4ccc(OC(F)(F)F)cc4)n3)cc2)N1c1c(F)cccc1F (centres unmarked) [Compound 159C] | 50 to 100 | 50 to 100 | – | – |
| CC1CS/C(=N\N=C\c2ccc(-c3ncn(-c4ccc(OC(F)(F)F)cc4)n3)cc2)N1c1c(Cl)cccc1C(F)(F)F (centres unmarked) [Compound 160C] | 50 to 100 | 50 to 100 | – | – |
| CCc1cc(OC)ccc1N1/C(=N/N=C/c2ccc(-c3ncn(-c4ccc(OC(F)(F)C(F)(F)F)cc4)n3)cc2)SCC1(C)O (centres unmarked) [Compound 264C] | 50 to 100 | – | – | – |
